The record followed here is US5529984A, “Endoparasiticidal compositions based on open-chain hexadepsipeptides” (Bayer Aktiengesellschaft, priority 1993, dated 1996).

Molecules are shown by their SMILES.

For this experiment, the system named is Haemonchus contortus. Description: In vivo nematode test Haemonchus contortus/sheep. The settings on record: sheep infected experimentally with Haemonchus contortus; pure active compound orally and/or intravenously; dose after which egg excretion with the faeces has stopped completely. As to the method:
Haemonchus contortus/sheep
Sheep infected experimentally with Haemonchus contortus were treated after the prepatency period of the parasite had elapsed. The active compounds were administered orally and/or intravenously in the form of the pure active compound.
The degree of effectiveness is determined by quantitatively determining the nematode eggs excreted with the faeces before and after the treatment.
If egg excretion has stopped completely after the treatment, this means that the nematodes were aborted or are damaged to such an extent that they no longer produce eggs (Dosis effective).
Active compounds which have been tested and effective dosage rates (Dosis effective) can be seen from the table which follows: […]

Consider `CCC(C)C(C(=O)OC(C)C(=O)N(C)C(C(=O)OC(C)C(=O)N(C)C(C(=O)OC(C)C(=O)O)C(C)CC)C(C)CC)N(C)C(=O)OCc1ccccc1` [Example 3, N-Benzyloxycarbonyl-N-methyl-L-isoleucyl-D -lactyl-N-methyl-L-isoleucyl-D-lactyl-N-methyl-n-isoleucyl-D-lactic acid], for which the “Dosis effective” value amounted to 10 mg/kg.
